Assay results from US10494402B2, “Peptides that stimulate subcutaneous adipogenesis” (The Regents of the University of California, priority 2012, dated 2019).

Columns and labels:
[1] = test system: human papillary fibroblasts (HPF); assay: Transdifferentiation of primary human dermal fibroblasts, papillary; assay type: cell-based; conditions: 5 μg/ml; peptide replaced insulin
Procedure: The B peptide and the KSEVSK 6-mer were also tested for their adipogenic effect on primary human dermal fibroblasts from the upper (papillary) and lower (reticular) dermal layers. The primary human fibroblasts were obtained from dermatome sections of biopsies from human volunteers. Cells were cultured and exposed to adipogenic medium. In these experiments, the B peptide and the KSEVSK 6-mer replaced insulin as the adipogenic stimulus. The peptides were used at a concentration of 5 μg/ml. Adipogenesis was assessed by Oil Red O staining. […] White arrows show fat droplets.

[2] = test system: rat mesenchymal stem cells; assay: Adipogenesis Assay 2 (dexamethasone/insulin/indomethacin induction, then peptide; Oil Red O or BODIPY); assay type: cell-based; conditions: Assay 2
Procedure: Reagents: The dexamethasone, insulin, and Oil Red O solutions were the same as described above for assay 1. Indomethacin Solution contained 10 mM indomethacin in methanol. The BODIPY 493/503 dye was used at a concentration of 4 μM.
Adipogenesis Maintenance Media was prepared as described above.
Adipogenesis Induction Media: To prepare 501 mL of Adipogenesis Induction Media, 50 μL of the 10 mM stock solution of dexamethasone, 500 μL of the 10 mg/ml stock solution of insulin, 5 ml of a 10 mM stock solution of indomethacin, and 5 mL of a 100× stock solution of penicillin and streptomycin were added to 490 mL of mesenchymal stem cell expansion media.
Pre-adipocyte stem cells, bone marrow mesenchymal stem cells and fibroblasts such as dermal reticular and papillary fibroblasts were propagated using standard tissue culture methods. Cells were trypsinized to remove cells from the substratum, the trypsin was neutralized, and cells were counted using a hemocytometer. Cells were resuspended at 60,000 cells/ml in low glucose DMEM containing 10% calf serum. 1 mL of cell suspension per well was plated in a 24-well plate, with several wells left empty for blank well staining.
Cells were incubated overnight and had reached confluency at this point. Approximately 1.8 ml of media was removed from each well and replaced with 2 ml Adipogenesis Induction Media. For negative control wells, expansion medium only was used at this step and for subsequent media changes. For all media changes, media was replaced as gently as possible to avoid disturbing the monolayer.
Media was removed and replaced with 2 ml of maintenance medium containing either RHAMM antagonist peptides (experimental group) or insulin (concentration as in the induction medium used as positive control). […]
Media was removed and BODIPY or Oil Red O staining was performed as described above for assay 1.
As described above in Example 1, two different adipogenesis assays were used herein to assess the adipogenic effects of the peptides in rat mesenchymal stem cells. Assay 1 is an assay that is typically used to promote transdifferentiation of fibroblasts into adipocytes, whereas Assay 2 is typically used to promote differentiation of multi-potential mesenchymal progenitor cells into adipocytes. Immortalized rat bone marrow mesenchymal stem cells were used for both assays. These cells contain cells of different lineages, including fibroblasts, pre-adipocytes, pre-chondrocytes and pre-osteoblasts. Thus, Assay 1 was used to promote transdifferentiation of the fibroblast lineages into adipocytes and Assay 2 was used to promote differentiation of the pre-adipocytes into adipocytes.
As described in Example 1 above, the priming stimulus for Assay 1 includes IBMX (3-isobutyl-1-methylxanthine) and dexamethasone, and then insulin as the final adipogenic stimulus. The priming stimulus for assay 2 includes IBMX, dexamethasone and indomethacin, and then insulin as the final adipogenic stimulus.

[3] = test system: human subcutaneous pre-adipocytes; assay: Differentiation of human subcutaneous pre-adipocytes; assay type: cell-based; conditions: for adipogenesis, Oil Red O staining, absence of both insulin and PPARγ agonist: FIGS. 23, 24; for adipogenesis, extracted Oil Red O: experimental cocktail lacked PPARγ agonist and insulin
Text: As noted above, this adipogenic cocktail contained pantothenate, dexamethasone, isobutylmethylxanthine (IBMX), human insulin and a PPARγ agonist. For these experiments, the following conditions were used as negative controls: (1) Preadipocyte Medium only; (2) the adipogenic cocktail without PPARγ agonist (PPARγ-); and (3) the adipogenic cocktail without PPARγ agonist or human insulin.
The positive control for FIG. 21 was the complete adipogenic medium containing both the PPARγ agonist and insulin: The experimental cocktail contained the B peptide or the KSEVSK 6-mer, but lacked PPARγ agonist and insulin. Adipogenesis levels were quantified by measuring extracted Oil Red 0.
The following conditions were used as negative controls: (Ctr no-γ)=monolayers cultured in adipogenic cocktail but without PPARγ agonist, (Ctr no-γ, no-Ins)=monolayers cultured in adipogenic cocktail but without PPARγ agonist or human insulin. To test the adipogenic activity of the KSEVSK 6-mer and B peptides, the human pre-adipocytes were exposed to the above negative controls plus either the KSEVSK 6-mer or the B peptide at concentrations of 5 μg/ml and 20 μg/ml. Statistical analysis were performed compared to negative control. Data presented as mean±standard error (n=3)

Rat skin = assay: Rat dermal skin model of adipogenesis (injection into dermis); assay type: in vivo
Procedure: Examples of the adipogenic effects of RHAMM antagonists (peptide B (SEQ ID NO: 2), peptide P15-1 (SEQ ID NO. 1), and the antibody to peptide B) are summarized in Table 1. Peptide P15-1, peptide B, and a RHAMM antibody were assayed for their effects on pre-adipocyte stem cells in culture and when injected into the dermis of aged rats. Reagents were ranked on a scale of 0-5 with 5 representing the highest possible score and a completely filled in Harvey ball. “2D” refers to two-dimensional tissue culture.
In FIGS. 5A and 5B, data are shown as a ratio of the area (“surface area”) of fat pads expressed as a ratio of experimental/control values.
The 6-mer (KSEVSK; SEQ ID NO: 3) was tested for adipogenic effect in rat skin in vivo. The results of this testing are shown in the photographs in FIG. 10.

## KLKDENSQLKSEVSK [peptide B]
[1]
  transdifferentiation into adipocytes, Oil Red O staining: had no effect
[2]
  Fold adipogenic induction vs. negative control: 4.0
  Specific activity (activity/1000 daltons): 2.17 activity/1000 daltons
[3]
  adipogenesis, Oil Red O staining, absence of both insulin and PPARγ agonist: stimulates adipogenesis
  adipogenesis, extracted Oil Red O: significantly (p<0.05) increased adipogenesis above the negative control levels
Rat skin; 25-50 μg/injection site
  fat accumulation (fat pads): induced significant fat accumulation
Rat skin; FIGS. 5A and 5B
  animals in which reagent was most effective (fat pad surface area, experimental/control): most effective in old females
Rat skin; injected into the dermis of aged rats, scale of 0-5, 5 highest
  adipogenic potential, In vivo Rat skin: 5

## KSEVSK [KSEVSK 6-mer]
[1]
  transdifferentiation into adipocytes, Oil Red O staining: had no effect
[2]
  Fold adipogenic induction vs. negative control: 2.5
  Specific activity (activity/1000 daltons): 3.32 activity/1000 daltons
[3]; FIG. 22
  adipogenesis, Oil Red O staining, absence of PPARγ agonist: stimulates adipogenesis
[3]
  adipogenesis, Oil Red O staining, absence of both insulin and PPARγ agonist: stimulates adipogenesis
  adipogenesis, extracted Oil Red O: significantly (p<0.05) increased adipogenesis above the negative control levels
Rat skin; FIG. 10
  fat pad induction in rat skin in vivo: able to induce large fat pads, possibly larger than peptide B
